According to US11154563B2, “Immunoproteasome inhibitors” (Principia Biopharma Inc., priority 2017, dated 2021):

Experiments:
Format in all cases: biochemical
[1] = target: immunoproteasome LPM2/β1i subunit (Homo sapiens, UniProt P28065+P40306); test: Caliper-based proteasome enzymatic activity assay, LMP2; settings: human recombinant immunoproteasome 0.3 nM, FAM-peptide substrate 1 μM, 2 h at rt
Description: A Caliper-based proteasome assay (Caliper Life Sciences, Hopkinton, Mass.) was used to measure inhibition of the immunoproteasome LMP7/B5i subunit, the immunoproteasome LPM2/β1i subunit, and the constitutive proteasome β5c unit for a compound of Formula (I). For LMP7 and β5c, serial dilutions of test compounds were incubated with either human recombinant immunoprotcasome or constitutive proteasome (0.3 nM enzyme) and a carboxyfluorescein (FAM)-labeled peptide substrate FAM-TYETFKSIMKKSPF-NH2 (1 μM) at it for 3 h. The reaction was then terminated with a buffer containing the known proteasome inhibitor carfilzomib at a concentration of 5 uM. For LMP2, serial dilutions of test compounds were incubated with human recombinant immunoproteasome proteasome (0.3 nM enzyme) and a carboxyfluorescein (FAM)-labeled peptide substrate FAM-[…]-NH2 (1 μM) at rt for 2 h. The reaction was then terminated with a buffer containing the known proteasome inhibitor ixazomib at a concentration of 6.7 uM. The reaction buffer was 20 mM Hepes pH 7.4, 0.01% bovine serum albumin, 0.015% SDS, 0.5 mM EDTA, 1%0/DMSO. The peptide cleavage reaction product was quantified on a Caliper LabChip 3000. Percent inhibition was calculated for each compound dilution and the concentration that produced 50% inhibition was calculated. This value is presented as the IC50.

[2] = target: constitutive proteasome β5c unit (Homo sapiens, UniProt P20618+P28074); test: Caliper-based proteasome enzymatic activity assay, β5c; settings: human recombinant constitutive proteasome 0.3 nM, FAM-peptide substrate 1 μM, 3 h at rt; read-out: β5c subunit IC50
Procedure, shortened: (§1)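 Recombinant human immunoproteasome or constitutive proteasome (0.3 nM) with 1 μM FAM-peptide in 20 mM Hepes pH 7.4, 0.015% SDS, 0.01% BSA; LMP7/β5c ran 3 h at rt and were stopped with 5 uM carfilzomib, LMP2 ran 2 h and was stopped with 6.7 uM ixazomib. Cleaved product quantified by microfluidic separation; IC50 from percent inhibition.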

[3] = target: immunoproteasome LMP7/B5i subunit (Homo sapiens, UniProt P20618+P28062); test: Caliper-based proteasome enzymatic activity assay, LMP7; settings: human recombinant immunoproteasome 0.3 nM, FAM-peptide substrate 1 μM, 3 h at rt
Procedure, shortened: as §1

Structure (SMILES)	IC50 [1] [nM]	IC50 [2] [nM]	IC50 [3] [nM]
Cc1ccc(C[C@H](NC(=O)OC[C@H]2COCCN2C(=O)C(C#N)=CC(C)(C)N2CCC(F)(F)C2)B(O)O)cc1 [Example 86, ((R)-1-(((((R)-4-(2-cyano-4-(3,3-difluorpyrrolidin-1-yl)-4-methylpent-2-enoyl)morpholin-3-yl)methoxy)carbonyl)amino)-2-(p-tolyl)ethyl)boronic acid]	> 5000	566	2.7
CC(C)(C=C(C#N)C(=O)N1C[C@@H]2C[C@@H]2[C@@H]1COC(=O)N[C@@H](Cc1ccccc1)B(O)O)N1CCOCC1 [Example 67, ((R)-1-(((((1S,2R,5R)-3-(2-cyano-4-methyl-4-morpholinopent-2-enoyl)-3-azabicyclo[3.1.0]hexan-2-yl)methoxy)carbonyl)amino)-2-phenylethyl)boronic acid]	> 5000	2310	1
CC(C)(C=C(C#N)C(=O)N1CCCC[C@@H]1COC(=O)N[C@@H](Cc1ccc(C(F)(F)F)cc1)B(O)O)N1CCC(F)(F)C1 [Example 83, ((R)-1-(((((R)-1-(2-cyano-4-(3,3-difluoropyrrolidin-1-yl)-4-methylpent-2-enoyl)piperidin-2-yl)methoxy)carbonyl)amino)-2-(4-(trifluoromethyl)phenyl)ethyl)boronic acid]	> 5000	1220	4.4
Cc1ccc(C[C@H](NC(=O)OC[C@H]2CCCCCN2C(=O)C(C#N)=CC(C)(C)C)B(O)O)cc1 [Example 32, ((R)-1-(((((R)-1-(2-cyano-4,4-dimethylpent-2-enoyl)azepan-2-yl)methoxy)carbonyl)amino)-2-(p-tolyl)ethyl)boronic acid]	> 5000	713	9.2
C=CC(=O)N1CCC[C@@H]1COC(=O)N[C@@H](Cc1ccc(C)cc1)B(O)O [Example 19, ((R)-1-(((((R)-1-acryloylpyrrolidin-2-yl)methoxy)carbonyl)amino)-2-(p-tolyl)ethyl)boronic acid]	> 5000	3260	60
CC(C)(C=C(C#N)C(=O)N1CCCC[C@@H]1COC(=O)N[C@@H](Cc1ccccc1)B(O)O)N1CCC(F)(F)CC1 [Example 31, ((R)-1-(((((R)-1-(2-cyano-4-(4,4-difluoropiperidin-1-yl)-4-methylpent-2-enoyl)piperidin-2-yl)methoxy)carbonyl)amino)-2-phenylethyl)boronic acid]	> 5000	2390	12
CC(C)(C=C(C#N)C(=O)N1CCC[C@]1(C)COC(=O)N[C@@H](Cc1ccccc1)B(O)O)N1CCC(F)(F)C1 [Example 85, ((R)-1-(((((R)-1-(2-cyano-4-(3,3-difluoropyrrolidin-1-yl)-4-methylpent-2-enoyl)-2-methylpyrrolidin-2-yl)methoxy)carbonyl)amino)-2-phenylethyl)boronic acid]	> 5000	4890	2
C=CC(=O)N1CCCC[C@H]1COC(=O)N[C@@H](Cc1ccccc1)B(O)O [Example 11, ((R)-1-(((((S)-1-acryloylpiperidin-2-yl)methoxy)carbonyl)amino)-2-phenylethyl)boronic acid]	3240	> 5000	957
CC(C)(C=C(C#N)C(=O)N1CCCC[C@@H]1COC(=O)N[C@@H](Cc1ccccc1)B(O)O)N1CCOCC1 [Example 29, ((R)-1-(((((R)-1-(2-cyano-4-methyl-4-morpholinopent-2-enoyl)piperidin-2-yl)methoxy)carbonyl)amino)-2-phenylethyl)boronic acid]	> 5000	3400	2.9
CC(C)(C=C(C#N)C(=O)N1CCCC[C@@H]1COC(=O)N[C@@H](Cc1ccccc1)B(O)O)N1CCC(F)(F)C1 [Example 28, ((R)-1-(((((R)-1-(2-cyano-4-(3,3-difluoropyrrolidin-1-yl)-4-methylpent-2-enoyl)piperidin-2-yl)methoxy)carbonyl)amino)-2-phenylethyl)boronic acid]	> 5000	2190	1.5
Cc1ccc(C[C@H](NC(=O)OC[C@H]2CCCCN2C(=O)C(C#N)=CC(C)(C)C)B(O)O)cc1 [Example 24, ((R)-1-(((((R)-1-(2-cyano-4,4-dimethylpent-2-enoyl)piperidin-2-yl)methoxy)carbonyl)amino)-2-(p-tolyl)ethyl)boronic acid]	> 5000	1390	3.7
CC(C)(C=C(C#N)C(=O)N1CCC[C@@H]1COC(=O)N[C@@H](Cc1ccccc1)B(O)O)N1CCN(C2COC2)CC1 [Example 17, ((R)-1-(((((R)-1-(2-cyano-4-methyl-4-(4-(oxetan-3-yl)piperazin-1-yl)pent-2-enoyl)pyrrolidin-2-yl)methoxy)carbonyl)amino)-2-phenylethyl)boronic acid]	> 5000	2950	1.9
CN1CCN(C(C)(C)C=C(C#N)C(=O)N2CCC[C@@H]2COC(=O)N[C@@H](Cc2coc3ccccc23)B(O)O)CC1 [Example 55, ((R)-2-(benzofuran-3-yl)-1-(((((R)-1-(2-cyano-4-methyl-4-(4-methylpiperazin-1-yl)pent-2-enoyl)pyrrolidin-2-yl)methoxy)carbonyl)amino)ethyl)boronic acid]		225	2.5
CC(C)(C=C(C#N)C(=O)N1CCCCC[C@H]1COC(=O)N[C@@H](Cc1coc2ccccc12)B(O)O)N1CCOCC1 [Example 64, ((R)-2-(benzofuran-3-yl)-1-(((((S)-1-(2-cyano-4-methyl-4-morpholinopent-2-enoyl)azepan-2-yl)methoxy)carbonyl)amino)ethyl)boronic acid]		645	3.3
CC(C)(C=C(C#N)C(=O)N1CCCC[C@@H]1COC(=O)N[C@@H](Cc1coc2ccccc12)B(O)O)N1CCN(C2COC2)CC1 [Example 60, ((R)-2-(benzofuran-3-yl)-1-(((((R)-1-(2-cyano-4-methyl-4-(4-(oxetan-3-yl)piperazin-1-yl)pent-2-enoyl)piperidin-2-yl)methoxy)carbonyl)amino)ethyl)boronic acid]		232	0.9
CC(C)(C=C(C#N)C(=O)N1CCCC[C@@H]1COC(=O)N[C@@H](Cc1coc2ccccc12)B(O)O)N1CCCC(F)(F)C1 [Example 62, ((R)-2-(benzofuran-3-yl)-1-(((((R)-1-(2-cyano-4-(3,3-difluoropiperidin-1-yl)-4-methylpent-2-enoyl)piperidin-2-yl)methoxy)carbonyl)amino)ethyl)boronic acid]		205	1.6
CC(C)(C=C(C#N)C(=O)N1CC(F)(F)C[C@@H]1COC(=O)N[C@@H](Cc1coc2ccccc12)B(O)O)N1CCOCC1 [Example 56, ((R)-2-(benzofuran-3-yl)-1-(((((R)-1-(2-cyano-4-methyl-4-morpholinopent-2-enoyl)-4,4-difluoropyrrolidin-2-yl)methoxy)carbonyl)amino)ethyl)boronic acid]		148	1.7
CC(C)(C=C(C#N)C(=O)N1CCCC[C@@H]1COC(=O)N[C@@H](Cc1ccccc1)B(O)O)N1CCN(C2COC2)CC1 [Example 126, ((R)-1-(((((R)-1-(2-cyano-4-methyl-4-(4-(oxetan-3-yl)piperazin-1-yl)pent-2-enoyl)piperidin-2-yl)methoxy)carbonyl)amino)-2-phenylethyl)boronic acid]		> 5000	21
